Reference: ChEMBL document CHEMBL1212796, “Ineffectiveness of tigecycline against persistent Borrelia burgdorferi” (2010)
Converted amounts (≈) assume the structure as drawn. The source made the active and inactive calls. The calls are words filed in the database; no cut-off is given here.

How the values were obtained:
Borrelia burgdorferi [1] = assay: Antimicrobial activity against Borrelia burgdorferi N40; format: functional; conditions: Borreliella burgdorferi
[2] = Reduction in beta-actin gene expression in heart base tissue Borrelia burgdorferi infected mouse at 50 mg/kg; format: functional, organism-based; set-up: dose 50 mg/kg; conditions: Borreliella burgdorferi
Borrelia burgdorferi [3] = assay: Antimicrobial activity against Borrelia burgdorferi B31; format: functional; conditions: Borreliella burgdorferi
[4] = Reduction in ospA gene expression assessed as gene copies in per mg of SCID mouse ventricular/quadriceps tissue receiving Borrelia burgdorferi infected nymphal ticks from 50 mg/kg treated mouse; format: functional, organism-based; set-up: dose 50 mg/kg; conditions: Borreliella burgdorferi; Cardiac ventricle; at 50 mg/kg
[5] = Reduction in flaB gene expression in heart base tissue Borrelia burgdorferi infected mouse at 50 mg/kg; format: functional, organism-based; set-up: dose 50 mg/kg; conditions: Borreliella burgdorferi
[6] = Reduction in flaB gene expression in heart base tissue Borrelia burgdorferi infected mouse at 12.5 mg/kg; format: functional, organism-based; set-up: dose 12.5 mg/kg; conditions: Borreliella burgdorferi
[7] = Reduction in arp gene expression in heart base tissue Borrelia burgdorferi infected mouse at 50 mg/kg; format: functional, organism-based; set-up: dose 50 mg/kg; conditions: Borreliella burgdorferi
[8] = Reduction in arp gene expression in heart base tissue Borrelia burgdorferi infected mouse at 12.5 mg/kg; format: functional, organism-based; set-up: dose 12.5 mg/kg; conditions: Borreliella burgdorferi
[9] = Reduction in ospA gene expression in heart base tissue Borrelia burgdorferi infected mouse at 50 mg/kg; format: functional, organism-based; set-up: dose 50 mg/kg; conditions: Borreliella burgdorferi
[10] = Reduction in dbpA gene expression in heart base tissue Borrelia burgdorferi infected mouse at 50 mg/kg; format: functional, organism-based; set-up: dose 50 mg/kg; conditions: Borreliella burgdorferi
[11] = Reduction in ospA gene expression in heart base tissue of SCID mouse transplanted with tibiotarsal and heart base tissue from Borrelia burgdorferi infected 50 mg/kg treated mouse; format: functional, organism-based; set-up: dose 50 mg/kg; conditions: Borreliella burgdorferi, at 50 mg/kg
[12] = Reduction in oppA-2 gene expression in heart base tissue Borrelia burgdorferi infected mouse at 50 mg/kg; format: functional, organism-based; set-up: dose 50 mg/kg; conditions: Borreliella burgdorferi
[13] = Reduction in beta-Actin gene expression in heart base tissue Borrelia burgdorferi infected mouse at 12.5 mg/kg; format: functional, organism-based; set-up: dose 12.5 mg/kg; conditions: Borreliella burgdorferi
[14] = Reduction in ospA gene expression in heart base tissue of SCID mouse transplanted with tibiotarsal and heart base tissue from Borrelia burgdorferi infected 12.5 mg/kg treated mouse; format: functional, organism-based; set-up: dose 12.5 mg/kg; conditions: Borreliella burgdorferi, at 12.5 mg/kg

With `CN(C)c1cc(NC(=O)CNC(C)(C)C)c(O)c2c1C[C@H]1C[C@H]3[C@H](N(C)C)C(O)=C(C(N)=O)C(=O)[C@@]3(O)C(O)=C1C2=O` [TIGECYCLINE] the MIC (Borrelia burgdorferi [1]) was 0.006 µg/mL (≈ 0.0102 µM), the inhibition [2] was “inactive” and the MIC (Borrelia burgdorferi [3]) was 0.006 µg/mL (≈ 0.0102 µM). For the same compound, the inhibition [4] was “Active”, the inhibition [5] was “Active” and the inhibition [6] was “Active”. The inhibition [7] was “Active”, the inhibition [8] was “Active” and the inhibition [9] was “Active”. The inhibition [10] was “Active”, the inhibition [11] was “Active” and the inhibition [12] was “inactive”. The inhibition [13] was “inactive”.
`CC1(C)S[C@@H]2[C@H](NC(=O)Cc3ccccc3)C(=O)N2[C@H]1C(=O)O` [PENICILLIN G] gave an MIC (Borrelia burgdorferi [1]) of 0.024 µg/mL (≈ 0.0718 µM) and an MIC (Borrelia burgdorferi [3]) of 0.024 µg/mL (≈ 0.0718 µM).
For `CO/N=C(\C(=O)N[C@@H]1C(=O)N2C(C(=O)O)=C(CSc3nc(=O)c(O)nn3C)CS[C@H]12)c1csc(N)n1` [CEFTRIAXONE], the MIC (Borrelia burgdorferi [1]) was 0.048 µg/mL (≈ 0.0866 µM), the MIC (Borrelia burgdorferi [3]) was 0.012 µg/mL (≈ 0.0216 µM) and the inhibition [14] was “Active”.
Work on `C[C@H]1c2cccc(O)c2C(=O)C2=C(O)[C@]3(O)C(=O)C(C(N)=O)=C(O)[C@@H](N(C)C)[C@@H]3[C@@H](O)[C@@H]21.O` [DOXYCYCLINE] yielded an MIC (Borrelia burgdorferi [1]) of 0.78 µg/mL and an MIC (Borrelia burgdorferi [3]) of 0.39 µg/mL.
